# In patent US10519147B2 (Merck Sharp & Dohme Corp., priority 2015, dated 2019):
# Key:
# human Nav1.5 = biological target: T1, human Nav1.5 (Homo sapiens, UniProt Q14524); assay: IonWorks Quattro automated patch-clamp, Nav1.5 (selectivity against Nav1.7); assay type: cell-based; settings: IonWorks measurement, HEK 293 cells, inactivated state block
# T1 construct: expressed in transfected cells; host or cells: HEK 293
# Experimental: Compounds were tested on human Nav1.7 and Nav1.5 channels stably expressed in HEK 293 cells. […] Cells were sealed on a planar substrate using the Population Patch […] (PPC) technology. Electrical access was obtained using both nystatin and amphotericin. A double-pulse protocol was used for the determination of IC50 values for inactivated state block. Nav1.7 and Nav1.5 expressing cells were voltage clamped at −100 mV and −110 mV, respectively. A depolarizing prepulse to −10 mV (Nav1.7) or −30 mV (Nav1.5) for 1000 ms followed by a 10 ms repolarization to −100 mV (Nav1.7) or −110 mV (Nav1.5) was given to generate fractional channel inactivation of 50%, followed by a 10 ms test pulse to −10 mV (Nav1.7) or −30 mV (Nav1.5) to measure peak current in control conditions and after compound addition. The following recording solutions were used (mM). External: 150 NaCl, 2 CaCl2, 5 KCl, 1 Mg Cl2, 10 HEPES, 12 Dextrose; internal: 120 CsF, 30 CsCl, 10 EGTA, 5 HEPES, 5 NaF, 2 MgCl2.
# For all electrophysiology experiments, offline analysis was used to determine percent inhibition as a function of drug concentration. IC50 values were determined by fitting to the Hill equation.
# human Nav1.7 = biological target: T2, human Nav1.7 (Homo sapiens, UniProt Q15858); assay: IonWorks Quattro automated patch-clamp, inactivated state block of Nav1.7; assay type: cell-based; settings: channels stably expressed in HEK 293 cells; double-pulse protocol, inactivated state block; read-out: potency for the Nav 1.7 sodium ion channel (IC50, as measured by IonWorks)
# T2 construct: expressed in transfected cells; host or cells: HEK 293
# T2 sequence (Q15858 whole entry): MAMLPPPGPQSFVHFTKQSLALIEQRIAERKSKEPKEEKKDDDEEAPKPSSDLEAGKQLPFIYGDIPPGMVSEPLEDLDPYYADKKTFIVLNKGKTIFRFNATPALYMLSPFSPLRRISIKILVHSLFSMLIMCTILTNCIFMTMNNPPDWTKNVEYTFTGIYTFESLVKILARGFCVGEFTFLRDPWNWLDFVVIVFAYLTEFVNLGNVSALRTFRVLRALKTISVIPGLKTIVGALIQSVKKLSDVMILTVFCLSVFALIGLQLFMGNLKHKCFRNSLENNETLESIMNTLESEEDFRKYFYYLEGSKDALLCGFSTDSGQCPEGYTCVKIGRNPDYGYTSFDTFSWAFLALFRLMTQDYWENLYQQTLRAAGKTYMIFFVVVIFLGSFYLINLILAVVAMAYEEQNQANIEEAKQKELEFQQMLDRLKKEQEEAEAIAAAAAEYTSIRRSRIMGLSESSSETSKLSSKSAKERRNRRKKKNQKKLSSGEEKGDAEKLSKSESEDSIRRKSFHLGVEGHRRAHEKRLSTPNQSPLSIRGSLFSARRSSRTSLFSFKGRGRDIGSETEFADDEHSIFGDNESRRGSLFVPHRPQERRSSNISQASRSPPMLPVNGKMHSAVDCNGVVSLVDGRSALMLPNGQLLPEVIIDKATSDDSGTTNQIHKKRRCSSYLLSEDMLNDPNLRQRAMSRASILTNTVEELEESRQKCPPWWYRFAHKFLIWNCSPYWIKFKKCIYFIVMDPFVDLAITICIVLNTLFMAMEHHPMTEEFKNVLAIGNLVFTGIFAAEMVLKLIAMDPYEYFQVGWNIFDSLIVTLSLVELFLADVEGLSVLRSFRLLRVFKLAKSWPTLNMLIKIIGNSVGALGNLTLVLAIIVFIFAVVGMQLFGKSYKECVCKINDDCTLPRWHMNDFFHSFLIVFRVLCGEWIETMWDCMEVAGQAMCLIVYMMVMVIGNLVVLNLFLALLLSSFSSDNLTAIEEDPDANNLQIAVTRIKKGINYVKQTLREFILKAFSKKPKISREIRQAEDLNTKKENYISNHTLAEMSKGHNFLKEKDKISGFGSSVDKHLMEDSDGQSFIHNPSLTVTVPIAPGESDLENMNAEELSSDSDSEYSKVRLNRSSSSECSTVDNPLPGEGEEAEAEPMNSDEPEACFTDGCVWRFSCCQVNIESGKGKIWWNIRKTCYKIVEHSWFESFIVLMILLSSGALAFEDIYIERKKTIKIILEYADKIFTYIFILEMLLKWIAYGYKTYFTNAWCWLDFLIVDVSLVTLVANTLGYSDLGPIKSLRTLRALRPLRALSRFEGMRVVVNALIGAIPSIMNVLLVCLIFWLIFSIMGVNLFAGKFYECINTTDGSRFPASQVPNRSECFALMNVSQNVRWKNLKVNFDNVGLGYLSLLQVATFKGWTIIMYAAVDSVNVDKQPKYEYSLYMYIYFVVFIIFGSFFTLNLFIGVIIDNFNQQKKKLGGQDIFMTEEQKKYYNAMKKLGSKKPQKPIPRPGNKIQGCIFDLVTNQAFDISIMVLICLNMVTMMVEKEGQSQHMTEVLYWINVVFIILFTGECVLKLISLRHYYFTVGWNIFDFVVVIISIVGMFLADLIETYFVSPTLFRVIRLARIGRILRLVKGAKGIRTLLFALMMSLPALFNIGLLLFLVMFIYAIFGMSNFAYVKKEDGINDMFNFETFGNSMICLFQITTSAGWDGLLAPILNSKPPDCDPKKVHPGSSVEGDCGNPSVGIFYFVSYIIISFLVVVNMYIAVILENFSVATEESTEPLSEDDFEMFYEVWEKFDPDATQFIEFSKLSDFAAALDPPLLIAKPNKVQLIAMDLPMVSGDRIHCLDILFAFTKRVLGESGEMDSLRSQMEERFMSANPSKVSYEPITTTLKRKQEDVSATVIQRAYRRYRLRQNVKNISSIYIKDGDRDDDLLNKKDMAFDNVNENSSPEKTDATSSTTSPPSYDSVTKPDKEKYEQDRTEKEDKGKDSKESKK
# Procedure, shortened: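 HEK293 stable lines, IonWorks PPC patch clamp (nystatin/amphotericin access); double-pulse protocol giving ~50% inactivation: holding −100 mV (Nav1.7) or −110 mV (Nav1.5), 1000 ms prepulse to −10 or −30 mV, 10 ms repolarization, 10 ms test pulse. Peak current inhibition versus concentration fitted to Hill equation for IC50.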
# T1 sequence (Q14524 whole entry): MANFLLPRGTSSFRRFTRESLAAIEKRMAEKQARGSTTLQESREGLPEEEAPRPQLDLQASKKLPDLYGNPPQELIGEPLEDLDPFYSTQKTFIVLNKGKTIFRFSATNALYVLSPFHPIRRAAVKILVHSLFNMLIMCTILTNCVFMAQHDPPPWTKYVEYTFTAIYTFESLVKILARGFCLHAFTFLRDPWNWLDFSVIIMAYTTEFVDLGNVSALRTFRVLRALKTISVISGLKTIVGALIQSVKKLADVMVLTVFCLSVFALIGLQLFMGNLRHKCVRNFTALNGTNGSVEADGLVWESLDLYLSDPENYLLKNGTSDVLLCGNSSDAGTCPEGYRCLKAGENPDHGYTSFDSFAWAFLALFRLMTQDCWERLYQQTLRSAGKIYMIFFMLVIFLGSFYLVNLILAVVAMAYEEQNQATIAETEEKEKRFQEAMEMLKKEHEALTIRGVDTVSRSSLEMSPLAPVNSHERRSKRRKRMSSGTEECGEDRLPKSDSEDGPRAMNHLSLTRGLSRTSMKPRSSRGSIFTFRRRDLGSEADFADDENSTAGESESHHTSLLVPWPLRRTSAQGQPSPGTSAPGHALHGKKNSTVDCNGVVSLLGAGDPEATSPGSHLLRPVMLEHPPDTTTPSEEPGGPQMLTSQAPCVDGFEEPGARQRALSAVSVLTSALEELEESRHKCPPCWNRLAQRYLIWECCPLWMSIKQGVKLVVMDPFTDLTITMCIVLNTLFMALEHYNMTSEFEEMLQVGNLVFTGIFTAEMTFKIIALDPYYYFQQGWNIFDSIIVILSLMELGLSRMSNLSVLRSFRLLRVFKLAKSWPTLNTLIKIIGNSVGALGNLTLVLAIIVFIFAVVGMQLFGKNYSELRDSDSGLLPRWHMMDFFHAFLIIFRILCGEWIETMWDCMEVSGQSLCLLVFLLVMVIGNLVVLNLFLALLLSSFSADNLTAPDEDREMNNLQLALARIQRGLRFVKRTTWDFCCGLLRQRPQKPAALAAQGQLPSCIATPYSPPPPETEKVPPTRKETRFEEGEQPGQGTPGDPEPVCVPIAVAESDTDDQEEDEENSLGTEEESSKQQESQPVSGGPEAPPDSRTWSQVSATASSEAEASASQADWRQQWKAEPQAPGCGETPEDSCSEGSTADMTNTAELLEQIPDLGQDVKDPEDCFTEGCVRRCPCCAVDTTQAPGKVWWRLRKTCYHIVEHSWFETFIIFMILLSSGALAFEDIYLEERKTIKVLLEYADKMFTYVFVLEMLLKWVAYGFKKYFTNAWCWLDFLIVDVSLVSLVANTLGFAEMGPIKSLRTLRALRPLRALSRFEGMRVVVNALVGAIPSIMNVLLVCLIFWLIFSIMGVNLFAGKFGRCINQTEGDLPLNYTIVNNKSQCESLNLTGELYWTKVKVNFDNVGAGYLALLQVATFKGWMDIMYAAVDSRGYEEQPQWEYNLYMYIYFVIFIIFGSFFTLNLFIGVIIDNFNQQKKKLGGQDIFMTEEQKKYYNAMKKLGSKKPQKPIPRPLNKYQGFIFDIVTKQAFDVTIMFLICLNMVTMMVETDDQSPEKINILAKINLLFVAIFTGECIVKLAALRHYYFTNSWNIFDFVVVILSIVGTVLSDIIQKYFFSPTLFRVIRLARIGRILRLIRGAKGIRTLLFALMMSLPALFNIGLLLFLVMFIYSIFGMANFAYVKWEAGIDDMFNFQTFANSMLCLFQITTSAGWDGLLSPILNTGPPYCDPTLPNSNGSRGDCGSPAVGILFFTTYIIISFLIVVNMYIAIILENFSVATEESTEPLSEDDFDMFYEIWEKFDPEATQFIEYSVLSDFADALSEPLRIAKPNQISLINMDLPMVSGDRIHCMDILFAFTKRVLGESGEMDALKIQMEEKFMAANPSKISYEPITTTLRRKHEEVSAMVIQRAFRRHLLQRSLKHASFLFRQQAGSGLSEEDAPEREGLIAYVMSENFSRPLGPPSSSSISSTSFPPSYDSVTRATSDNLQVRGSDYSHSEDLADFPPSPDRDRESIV
SMILES,ratio of Nav 1.7 potency:Nav 1.5 potency (human Nav1.5),IC50 (human Nav1.7)
"N[C@@H]1CCC[C@H]1NCCCCNc1cc(F)c(S(=O)(=O)Nc2ncns2)cc1Br [Ex 16-94, 4-[4-[[(1R,2R)-2-aminocyclopentyl]amino]butylamino]-5-bromo-2-fluoro-N-(1,2,4-thiadiazol-5-yl)benzenesulfonamide]",3150,7.3 nM
"N[C@H]1CC[C@H](NCCCCNc2cc(F)c(S(=O)(=O)Nc3ncns3)cc2Br)C1 [Ex 16-95, 4-[4-[[(1S,3S)-3-aminocyclopentyl]amino]butylamino]-5-bromo-2-fluoro-N-(1,2,4-thiadiazol-5-yl)benzenesulfonamide]",> 940,35 nM
"NCC1(NCCCCNc2cc(F)c(S(=O)(=O)Nc3ncns3)cc2Br)CC1 [Ex 16-98, 4-[4-[[1-(aminomethyl)cyclopropyl]amino]butylamino]-5-bromo-2-fluoro-N-(1,2,4-thiadiazol-5-yl) benzenesulfonamide]",> 3840,8.6 nM
"C[C@@H](N)CNCCCCNc1cc(F)c(S(=O)(=O)Nc2ncns2)cc1Br [Ex 16-99, 4-[4-[[(2R)-2-aminopropyl]amino]butylamino]-5-bromo-2-fluoro-N-(1,2,4-thiadiazol-5-yl)benzenesulfonamide]",3900,5.9 nM
